Laboratory results published in article PMC9116242 (Journal of Enzyme Inhibition and Medicinal Chemistry, 2022).

Columns and labels:
[1] = tested on: BV-2 cells; test: Cytotoxicity on BV-2 cells, MTT assay; assay type: cell-based; settings: 5 and 10 μM
[2] = tested on: NO production in LPS-induced BV-2 cells; test: NO release in BV-2 cells and LPS-stimulated BV-2 cells, Griess reaction; assay type: cell-based; settings: 5 and 10 μM
[3] = PAMPA-BBB permeation assay; settings: Table 3
[4] = tested on: TNF-α production in LPS-induced BV-2 cells; test: LPS-induced TNF-α production in BV-2 cells, ELISA; assay type: cell-based; settings: for Level of TNF-α production: BV-2 cells, 1.0 μg/mL LPS; for inhibition at 5 µM: Mus musculus, BV-2, read-out: Inhibitory rate of TNF-α production
[5] = target: T1, huMAO-B (Homo sapiens, UniProt P27338); test: Kinetic study against huMAO-B, Lineweaver-Burk plots; assay type: biochemical; settings: 5a at 0.15, 0.3 and 0.6 μM
T1 sequence (P27338 1-520): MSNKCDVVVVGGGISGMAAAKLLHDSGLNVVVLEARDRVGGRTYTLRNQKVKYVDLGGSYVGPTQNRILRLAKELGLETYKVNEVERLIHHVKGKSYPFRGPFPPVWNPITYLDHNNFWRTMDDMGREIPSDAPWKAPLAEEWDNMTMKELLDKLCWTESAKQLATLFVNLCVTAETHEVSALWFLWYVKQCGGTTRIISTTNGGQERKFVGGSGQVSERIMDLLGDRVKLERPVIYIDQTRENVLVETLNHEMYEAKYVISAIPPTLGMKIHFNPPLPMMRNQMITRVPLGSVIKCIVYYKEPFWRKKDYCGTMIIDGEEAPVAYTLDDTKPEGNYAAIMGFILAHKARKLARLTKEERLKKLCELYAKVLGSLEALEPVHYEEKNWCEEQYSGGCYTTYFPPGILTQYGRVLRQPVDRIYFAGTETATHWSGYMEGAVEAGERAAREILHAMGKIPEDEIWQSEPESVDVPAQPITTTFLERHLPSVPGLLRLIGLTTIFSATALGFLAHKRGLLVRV

[6] = tested on: PC12 cells; test: Neuroprotective effect against Aβ1-42-induced PC12 cell injury, MTT assay; assay type: cell-based; settings: 25 μM Aβ1-42 for 48 h, compound at 5 and 10 μM
[7] = In vivo PET-CT imaging with [11C]5f in mice; settings: blocker 1.0 mg/kg 5 min before the radiotracer, compared with baseline

| Pe [3] [×10⁻⁶ cm/s] | Type of MAO-B inhibition [5] | Structure (SMILES) | Cytotoxicity on BV-2 cells (cell viability) [1] | Effect on release of NO in BV-2 cells without LPS [2] | Level of TNF-α production ([4]; compound at 5 μM) [pg/mL] | Level of TNF-α production ([4]; compound at 10 μM) [pg/mL] | inhibition at 5 µM [4] [%] | Cell viability, Aβ1-42-induced PC12 cell injury (in words) [6] | Radio-uptake decrease of [11C]5f in the brain after pre-treatment (blocking) [7] [%] |
| --- | --- | --- | --- | --- | --- | --- | --- | --- | --- |
| 14.7 | competitive | C#CCOc1ccc(/C=C/C(=O)N2CCC(Cc3ccccc3)CC2)cc1OC [Compound 5a, (E)-1-(4-benzylpiperidin-1-yl)-3-(3-methoxy-4-(prop-2-yn-1-yloxy)phenyl)prop-2-en-1-one] | non-toxic | did not produce an effect on the release of NO | 820 | 520 | 51.7 |  |  |
| 18.2 |  | COc1cc(/C=C/C(=O)N2CCC(Cc3ccccc3)CC2)ccc1OC1CCCCC1 [Compound 5d, (E)-1-(4-benzylpiperidin-1-yl)-3-(4-(cyclohexyloxy)-3-methoxyphenyl)prop-2-en-1-one] | non-toxic | did not produce an effect on the release of NO | 780 | 460 | 54.1 | gradually increased in a dose-dependent manner |  |
| 12.5 |  | C#CCOc1ccc(/C=C/C(=O)N2CCc3ccccc3C2)cc1OC [Compound 5e, (E)-1-(3,4-dihydroisoquinolin-2(1H)-yl)-3-(3-methoxy-4-(prop-2-yn-1-yloxy)phenyl)prop-2-en-1-one] | non-toxic | did not produce an effect on the release of NO | 805 | 550 | 52.6 | gradually increased in a dose-dependent manner |  |
| 20.4 |  | COc1ccc(/C=C/C(=O)N2CCc3ccccc3C2)cc1OC [Compound 5f, (E)-1-(3,4-dihydroisoquinolin-2(1H)-yl)-3-(3,4-dimethoxyphenyl)prop-2-en-1-one] | non-toxic | did not produce an effect on the release of NO | 750 | 455 | 55.9 | gradually increased in a dose-dependent manner | ~35 |
| 16.7 |  | COc1cc(/C=C/C(=O)N2CCc3ccccc3C2)ccc1OC1CCCCC1 [Compound 5h, (E)-3-(4-(cyclohexyloxy)-3-methoxyphenyl)-1-(3,4-dihydroisoquinolin-2(1H)-yl)prop-2-en-1-one] | non-toxic | did not produce an effect on the release of NO | 740 | 435 | 56.5 | gradually increased in a dose-dependent manner |  |
|  |  | CCN(C)C(=O)Oc1cccc([C@H](C)N(C)C)c1 [Rivastigmine, reference compound] |  |  |  |  |  |  | ~35 |
